Experimental data taken from patent US5871937A, “Acute phase protein modulating endotoxic activity of lipopolysaccharides, assay methods and polypeptides” (priority 1997, dated 1999).
Read-outs that look alike come from different tables or passages of the source.

Experiments:
[1] = target: T1, purified lapine LBP (Oryctolagus cuniculus, UniProt P17454); assay: Microtiter binding assay: inhibition of LBP binding to Re595 LPS-coated plates; parameters: species or system rabbit; settings: for IC50: read-out: ED50 (the source's name) (converted); for Inhibition of LBP binding to LPS plate, in words: qualitative analysis of Table IV
T1 construct: the mature secreted protein present in impure form in acute phase sera; from tissue; host or cells: acute phase rabbit serum (silver nitrate induced), Bio-Rex 70 and Mono-Q columns
Text: (§1) The binding of purified lapine LBP to LPS immobilized on plastic microtiter plates has also been examined. The presence of LBP bound to LPS was detected with goat anti-rabbit LBP and peroxidase conjugated rabbit anti-goat IgG.
The data from these studies are shown in Table IV, below, where the numerical results are the concentrations necessary to reduce the binding of 1 microgram (ug)/ml LBP to the plate by 50 percent; i.e., ED50. It is noted that in some instances, the structure of the inhibitor is either not fully defined or the inhibitor is heterogeneous, thereby preventing a calculation of a molar concentration for ED50.
(§2) Microtiter plates were coated with LPS by incubating 100 ul/well of 30 ug/ml Re595 LPS in 0.1M Na2 Co3, 20 mM EDTA, pH 9.6 for 3 hours at 37°. The LPS solution was flicked out, the plates rinsed thoroughly under running water and air dried overnight. The binding properties of the dried, LPS-coated plates remain unchanged for up to eight weeks. Excess binding sites were then blocked with 200 ul/well of 10 mg/ml BSA in 50 mM HEPES, 0.15M NaCl, pH 7.4 (HS buffer) for 30 minutes at 37° temperature with agitation, after which the BSA solution was flicked out.
LBP samples, APRS, or NRS were added in a total volume of 100 ul/well diluted in 1 mg/ml BSA in HS buffer. Binding of LBP was allowed to occur for 3 hours at 37°. The plate was then rinsed 3 times with 200 ul/well of 1 mg/ml BSA in HS buffer with agitation over a 10 minute interval.
Goat anti-LBP serum, 100 ul/well, diluted 2000 times in 1 mg/ml BSA in HS buffer was then incubated in the wells for 2 hours at 37°. The anti-LBP antiserum was then rinsed out as above and replaced for 1 hour at room temperature with 100 ul/well of peroxidase conjugated rabbit anti-goat IgG diluted 2500 times in 1 mg/ml BSA.
(§3) Finally, 100 ul/well o-phenylenediamine solution (4 mM o-phenylenediamine, 2.3 mM H2 O2, 50 mM citric acid, 133 mM Na2 HPO4, pH 5.0) were added and the resulting composition maintained until sufficient color had developed (5-15 minutes). The reaction was stopped by addition of 100 ul/well 5M H2 SO4 and the absorbance at 490 nm of each well was quantitated in a microtiter plate reader. Mean absorbances and standard errors of the means were calculated from 4-8 replicates of each well.
Inhibition of LBP binding to the plate was studied by premixing the compound under study at the desired concentration with 1 ug/ml purified LBP for 10 minutes at 37° before adding the mixture to the microtiter plate.

[2] = target: T1, purified lapine LBP; assay: Binding of purified lapine LBP to LPS types and lipid A partial structures (microtiter plate); settings: detected with goat anti-rabbit LBP and peroxidase conjugated rabbit anti-goat IgG
Description: as §1
(§4) Binding affinities of LBP for LPS are near 10^9 m^-1.
as §2, with “out. […]” for “out.”
as §3

[3] = test system: Gram-negative bacteria; settings: similar conditions for LBP and BPI; cited from earlier work
[4] = Binding affinity of LBP for LPS; settings: association constant
Text: as §1, §4

[5] = NRS reconstitution assay for LBP activity (C1.3 formation, retardation of LPS binding to HDL); format: biochemical, rabbit; settings: added to NRS
Description: Two examples of the NRS reconstitution assay for lipopolysaccharide binding protein (LBP) activity in the lapine (rabbit) system are shown in FIG. 5. In control studies, no systematic dependence on the assay results were observed when smaller total assay volumes; i.e., 0.5 or 0.25 ml rather than the standrard 1 ml, were used.
The basic method used during development of the purification procedure for LBP was a reconstitution assay in which fractions of acute phase serum were assayed for their ability to reconstitute "acute phase behavior" in NRS. The screening assay used was to mix a sample of the material to be tested with 1.0 ml of NRS at 37 degrees C. for 30 minutes. LPS and EDTA were then added to the concentrations given above, and the LPS-HDL binding reaction was allowed to proceed for ten minutes at 37 degrees before addition of CsCl and centrifugation. The 10 minute reaction time was chosen as a compromise between the times required for LPS to bind to HDL in NRS and APRS. […]
To quantitate LBP activity in purified fractions of APRS, the reconstitution assay just described was performed with a series of different amounts of the sample being assayed up to a maximum of 200 ul per ml NRS. After centrifugation and quantitation of the LPS in C1.3, a plot of percent LPS as C1.3 versus sample volume was made. […]

[6] = concentration necessary to reduce the binding of 1 ug/ml LBP to the Re595 LPS-coated plate by 50 percent
[7] = concentration necessary to reduce the binding of 1 ug/ml LBP to the plate by 50 percent

Row | Molecule | IC50 [1, 6] | IC50 [1, 7] | ED50 [1, 6] | Inhibition of LBP binding to LPS plate, in words [1] | also measured
1 | CCCCCCCCCCCCCC(=O)O[C@H](CCCCCCCCCCC)CC(=O)O[C@@H]1[C@@H](NC(=O)C[C@@H](CCCCCCCCCCC)OC(=O)CCCCCCCCCCC)[C@H](OC[C@H]2O[C@H](OP(=O)(O)O)[C@H](NC(=O)C[C@H](O)CCCCCCCCCCC)[C@@H](OC(=O)C[C@H](O)CCCCCCCCCCC)[C@@H]2O)O[C@H](CO)[C@H]1OP(=O)(O)O [J5 LA (synthetic)] | 0.0222 µM | 0.02 µM |  |  | 
2 | CCCCCCCCCCCCCC(=O)OCC(COP(=O)(O)O)OC(=O)CCCCCCCCCCCCC (stereo not drawn) [Dimyristoyl phosphatidic acid, dimyristoyl phosphatidic acid] | 4.22 µM | 3.9 µM |  |  | 
3 | CCCCCCCCCCC[C@@H](O)CC(=O)N[C@H]1[C@@H](OP(=O)(O)O)O[C@H](CO)[C@@H](O)[C@@H]1OC(=O)C[C@H](O)CCCCCCCCCCC [Lipid x] | 3.93 µM | 3.9 µM |  |  | Binding of LBP to the substance [2]: only poorly
4 | 0-[2-amino-2-deoxy-N^2 -(3-hydroxytetradecanoyl)-beta-D-glucopyranosyl]-(1-6)-amino-2-deoxy-N^2 -(3-hydroxytetradecanoyl)-alpha-D-glucopyranose 1,4'-bisphosphate [DADG-BSA] |  | 0.57 µM | 540 ng/mL |  | 
5 | Dextran sulfate |  |  | 73 ng/mL | fairly good ligands | 
6 | Nc1ncnc2c1ncn2[C@@H]1O[C@H](COP(=O)(O)O)[C@@H](O)[C@H]1O [AMP, adenosine-5'-monophosphate] | > 2880 µM | > 2800 µM |  | ineffective | 
7 | Lipoteichoic acid |  |  | 480 ng/mL | fairly good ligands | 
8 | Heparin |  |  | 21,000 ng/ml | inhibitory only at high concentrations | 
9 | CCCCCCCCCCC[C@@H](O)CC(=O)N[C@H]1[C@H](OC[C@H]2O[C@H](OP(=O)(O)O)[C@H](NC(=O)C[C@H](O)CCCCCCCCCCC)[C@@H](OC(=O)C[C@H](O)CCCCCCCCCCC)[C@@H]2O)O[C@H](CO)[C@@H](OP(=O)(O)O)[C@@H]1OC(=O)C[C@H](O)CCCCCCCCCCC [precursor IVA] |  |  |  |  | Binding of LBP to the substance [2]: bind
10 | BPI: bactericidal/permeability increasing protein, a product of neutrophils (protein, UniProt P17213 32-487, looked up) Bactericidal …: VNPGVVVRISQKGLDYASQQGTAALQKELKRIKIPDYSDSFKIKHLGKGHYSFYSMDIREFQLPSSQISMVPNVGLKFSISNANIKISGKWKAQKRFLKMSGNFDLSIEGMSISADLKLGSNPTSGKPTITCSSCSSHINSVHVHISKSKVGWLIQLFHKKIESALRNKMNSQVCEKVTNSVSSELQPYFQTLPVMTKIDSVAGINYGLVAPPATTAETLDVQMKGEFYSENHHNPPPFAPPVMEFPAAHDRMVYLGLSDYFFNTAGLVYQEAGVLKMTLRDDMIPKESKFRLTTKFFGTFLPEVAKKFPNMKIQIHVSASTPPHLSVQPTGLTFYPAVDVQAFAVLPNSSLASLFLIGMHTTGSMEVSAESNRLVGELKLDRLLLELKHSNIGPFPVELLQDIMNYIVPILVLPRVNEKLQKGFPLPTPARVQLYNVVLQPHQNFLLFGADVVYK |  |  |  |  | Bactericidal effect [3]: kills
11 | LBP: acute phase glycoprotein of about 60 kD that binds LPS and retards its binding to HDL (protein, UniProt P17454 27-482, looked up) Lipopolysaccharide-binding …: TNPGLITRITDKGLEYAAREGLLALQRKLLEVTLPDSDGDFRIKHFGRAQYKFYSLKIPRFELLRGTLRPLPGQGLSLDISDAYIHVRGSWKVRKAFLRLKNSFDLYVKGLTISVHLVLGSESSGRPTVTTSSCSSDIQNVELDIEGDLEELLNLLQSQIDARLREVLESKICRQIEEAVTAHLQPYLQTLPVTTQIDSFAGIDYSLMEAPRATAGMLDVMFKGEIFPLDHRSPVDFLAPAMNLPEAHSRMVYFSISDYVFNTASLAYHKSGYWNFSITDAMVPADLNIRRTTKSFRPFVPLLANLYPNMNLELQGTVNSEQLVNLSTENLLEEPEMDIEALVVLPSSAREPVFRLGVATNVSATLTLNTRKITGFLKPGRLQVELKESKVGGFNVELLEALLNYYILNNLYPKVNEKLAHRFPLPLLRHIQLYDLLLQTHENFLLVGANIQYRRV |  |  |  |  | Binding affinities of LBP for LPS [4]: ~10^9 m^-1; Retardation of LPS binding to HDL / reconstitution of acute phase behavior in normal rabbit serum [5]: retards binding; Bactericidal effect [3]: no bactericidal effects
12 | rabbit CRP: rabbit C-reactive protein (protein, UniProt P02742 21-225, looked up) C-reactive protein: AGMHKKAFVFPKESDNSYVSLNAQLKKPLKAFTVCLYFYTDLSMTRGYSIFSYATRRQFNEILLFWSKDIGYSFSVGGDEIIFKVSDIPVDPTHLCASWESSTGIAELWVDGKPMVRKSLKKGYILGPEASIILGQDQDSFGGSFEKQQSLVGDIGNVNMWDYALSPEEINTIYAGGTFSPNVLDWRELTYQVRGEVHVKPQLWP |  |  |  |  | Retardation of LPS binding to HDL / reconstitution of acute phase behavior in normal rabbit serum [5]: does not reconstitute the observed phenomena
